# In US20250276983A1, “COMPOUNDS AND METHODS FOR MODULATING HER2” (IAMBIC THERAPEUTICS, INC., priority 2022, published 2025):
# Read-outs that look alike come from different tables or passages of the source.
# Assays:
# Format in all cases: cell-based
# BaF3_EGFRWT cells = test: Cell growth inhibition assay, BaF3_EGFRWT; conditions: 80 ng/mL recombinant human EGF, 3 days treatment, CellTiterGlo 2.0, read-out: EGFR WT IC50 (nM), cell growth inhibition
# BaF3_HER2YVMA cells = test: Cell growth inhibition assay, BaF3_HER2YVMA; conditions: BaF3_HER2YVMA cells, 3 days treatment, CellTiterGlo 2.0, read-out: HER2-YVMA IC50 (nM), cell growth inhibition
# BaF3_HER2WT cells = test: Cell growth inhibition assay, BaF3_HER2WT; conditions: 3 days treatment, CellTiterGlo 2.0, read-out: HER2 WT IC50 (nM), cell growth inhibition
Compound,IC50 (BaF3_EGFRWT cells; 72 h),IC50 (BaF3_HER2YVMA cells; 72 h),IC50 (BaF3_HER2WT cells; 72 h),IC50 (BaF3_EGFRWT cells),IC50 (BaF3_HER2YVMA cells),IC50 (BaF3_HER2WT cells)
"C=C(CN(C)C)C(=O)N1CC(c2ccn3ncnc(Nc4ccc(Oc5ccc6c(c5)ncn6C)c(C)c4)c23)C1 [Example 67, 2-((dimethylamino)methyl)-1-(3-(4-((3-methyl-4-((1-methyl-1H-benzo[d]imidazol-5-yl)oxy)phenyl)amino)pyrrolo[2,1-f][1,2,4]triazin-5-yl)azetidin-1-yl)prop-2-en-1-one]",500 to 1500 nM,< 200 nM,< 200 nM,–,–,–
"C=C(CN(C)C)C(=O)N1CC2CCC(C1)N2c1ccn2ncnc(Nc3ccc(Oc4ccn5ncnc5c4)c(C)c3)c12 [Example 49, 1-(8-(4-((4-([1,2,4]triazolo[1,5-a]pyridin-7-yloxy)-3-methylphenyl)amino)pyrrolo[2,1-f][1,2,4]triazin-5-yl)-3,8-diazabicyclo[3.2.1]octan-3-yl)-2-((dimethylamino)methyl)prop-2-en-1-one acetate]",1500 to 5000 nM,< 200 nM,< 200 nM,–,–,–
"Cc1cc(Nc2ncnn3ccc(C4CCCN(C(=O)C(F)Cl)CC4)c23)ccc1Oc1ccn2ncnc2c1 (single isomer, unassigned) [Examples 145, 146, 147 and 148, second eluting isomer, 1-(4-(4-((4-([1,2,4]triazolo[1,5-a]pyridin-7-yloxy)-3-methylphenyl)amino)pyrrolo[2,1-f][1,2,4]triazin-5-yl)azepan-1-yl)-2-chloro-2-fluoroethan-1-one]",–,–,–,500 to 1500 nM,< 200 nM,< 200 nM
"Cc1cc(Nc2ncnn3ccc(C4CCCN(C(=O)/C=C/CN(C)C)CC4)c23)ccc1Oc1ccn2ncnc2c1 (single isomer, unassigned) [Examples 109 and 110, first eluting isomer, (E)-1-(4-(4-((4-([1,2,4]triazolo[1,5-a]pyridin-7-yloxy)-3-methylphenyl)amino)pyrrolo[2,1-f][1,2,4]triazin-5-yl)azepan-1-yl)-4-(dimethylamino)but-2-en-1-one]",1500 to 5000 nM,< 200 nM,< 200 nM,–,–,–
"C=CC(=O)N1CC=C(c2ccn3ncnc(Nc4ccc(Oc5ccn6ncnc6c5)c(C)c4)c23)C1 [Example 28, 1-(3-(4-((4-([1,2,4]triazolo[1,5-a]pyridin-7-yloxy)-3-methylphenyl)amino)pyrrolo[2,1-f][1,2,4]triazin-5-yl)-2,5-dihydro-1H-pyrrol-1-yl)prop-2-en-1-one acetate]",1500 to 5000 nM,500 to 1500 nM,< 200 nM,–,–,–
"C=CC(=O)NC1CCN(c2ccn3ncnc(Nc4ccc(Oc5ccn6ncnc6c5)c(C)c4)c23)C1 (stereo not drawn) [Example 79, N-(1-(4-((4-([1,2,4]triazolo[1,5-a]pyridin-7-yloxy)-3-methylphenyl)amino)pyrrolo[2,1-f][1,2,4]triazin-5-yl)pyrrolidin-3-yl)acrylamide]",1500 to 5000 nM,200 to 500 nM,< 200 nM,–,–,–
"C=CC(=O)N1C2CCC1CN(c1ccn3ncnc(Nc4ccc(Oc5ccn6ncnc6c5)c(C)c4)c13)C2 [Example 46, 1-(3-(4-((4-([1,2,4]triazolo[1,5-a]pyridin-7-yloxy)-3-methylphenyl)amino)pyrrolo[2,1-f][1,2,4]triazin-5-yl)-3,8-diazabicyclo[3.2.1]octan-8-yl)prop-2-en-1-one]",200 to 500 nM,< 200 nM,< 200 nM,–,–,–
"Cc1cc(Nc2ncnn3ccc(C4CCN(C(=O)C5CC(=O)N5)CC4)c23)ccc1Oc1ccn2ncnc2c1 (stereo not drawn) [Example 36, 4-(4-(4-((4-([1,2,4]triazolo[1,5-a]pyridin-7-yloxy)-3-methylphenyl)amino)pyrrolo[2,1-f][1,2,4]triazin-5-yl)piperidine-1-carbonyl)azetidin-2-one acetate]",1500 to 5000 nM,1500 to 5000 nM,1500 to 5000 nM,–,–,–
"C=C(CN(C)C)C(=O)N1CCCC(c2ccn3ncnc(Nc4ccc(Oc5ccn6ncnc6c5)c(C)c4)c23)CC1 (single isomer, unassigned) [Examples 143 and 144, first eluting isomer, 1-(4-(4-((4-([1,2,4]triazolo[1,5-a]pyridin-7-yloxy)-3-methylphenyl)amino)pyrrolo[2,1-f][1,2,4]triazin-5-yl)azepan-1-yl)-2-((dimethylamino)methyl)prop-2-en-1-one]",1500 to 5000 nM,–,< 200 nM,–,500 to 1500 nM,–
"Cc1cc(Nc2ncnn3ccc(C4CCN(C(=O)/C=C/CN(C)C)CC4)c23)ccc1Oc1ccc2c(c1)ncn2C [Example 133, (E)-4-(dimethylamino)-1-(4-(4-((3-methyl-4-((1-methyl-1H-benzo[d]-224-midazole-5-yl)oxy)phenyl)amino)pyrrolo[2,1-f][1,2,4]triazin-5-yl)piperidin-1-yl)but-2-en-1-one]",1500 to 5000 nM,< 200 nM,< 200 nM,–,–,–
"Cc1cc(Nc2ncnn3ccc(C4CC5CCC(C4)N5C(=O)/C=C/CN(C)C)c23)ccc1Oc1ccn2ncnc2c1 (single isomer, unassigned) [Examples 122 and 123, first eluting isomer, (E)-1-(-3-(4-((4-([1,2,4]triazolo[1,5-a]pyridin-7-yloxy)-3-methylphenyl)amino)pyrrolo[2,1-f][1,2,4]triazin-5-yl)-8-azabicyclo[3.2.1]octan-8-yl)-4-(dimethylamino)but-2-en-1-one]",–,< 200 nM,< 200 nM,500 to 1500 nM,–,–
"Cc1cc(Nc2ncnn3ccc(N4CC5CCC(C4)N5C(=O)/C=C/CN(C)C)c23)ccc1Oc1ccn2ncnc2c1 [Example 47, (E)-1-(3-(4-((4-([1,2,4]triazolo[1,5-a]pyridin-7-yloxy)-3-methylphenyl)amino)pyrrolo[2,1-f][1,2,4]triazin-5-yl)-3,8-diazabicyclo[3.2.1]octan-8-yl)-4-(dimethylamino)but-2-en-1-one]",1500 to 5000 nM,< 200 nM,< 200 nM,–,–,–
"Cc1cc(Nc2ncnn3ccc(C4CN(C(=O)/C=C/CN5CCC(F)(F)CC5)C4)c23)ccc1Oc1ccn2ncnc2c1 [Example 85, (E)-1-(3-(4-((4-([1,2,4]triazolo[1,5-a]pyridin-7-yloxy)-3-methylphenyl)amino)pyrrolo[2,1-f][1,2,4]triazin-5-yl)azetidin-1-yl)-4-(4,4-difluoropiperidin-1-yl)but-2-en-1-one]",1500 to 5000 nM,< 200 nM,< 200 nM,–,–,–
"Cc1cc(Nc2ncnn3ccc([C@@H]4CCCN(C(=O)[C@H](F)Cl)CC4)c23)ccc1Oc1ccn2ncnc2c1 (single isomer, unassigned) [Examples 145, 146, 147 and 148, fourth eluting isomer]",1500 to 5000 nM,500 to 1500 nM,200 to 500 nM,–,–,–
"Cc1cc(Nc2ncnn3ccc(C4CCN(C(=O)/C=C/CN5CC6COCC6C5)CC4)c23)ccc1Oc1ccn2ncnc2c1 (stereo not drawn) [Example 119, E-1-(4-(4-((4-([1,2,4]triazolo[1,5-a]-208-midazol-7-yloxy)-3-methylphenyl)amino)pyrrolo[2,1-f][1,2,4]triazin-5-yl)piperidin-1-yl)-4-(tetrahydro-1H-furo[3,4-c]pyrrol-5(3H)-yl)but-2-en-1-one]",1500 to 5000 nM,< 200 nM,< 200 nM,–,–,–
"C=CC(=O)N1CC2CCC1CC2c1ccn2ncnc(Nc3ccc(Oc4ccn5ncnc5c4)c(C)c3)c12 (single isomer, unassigned) [Examples 139 and 140, first eluting isomer, 1-(5-(4-((4-([1,2,4]triazolo[1,5-a]pyridin-7-yloxy)-3-methylphenyl)amino)pyrrolo[2,1-f][1,2,4]triazin-5-yl)-2-azabicyclo[2.2.2]octan-2-yl)prop-2-en-1-one]",1500 to 5000 nM,–,–,–,< 200 nM,< 200 nM
"C=CC(=O)N1CCCC(c2ccn3ncnc(Nc4ccc(Oc5ccn6ncnc6c5)c(C)c4)c23)CC1 (single isomer, unassigned) [Examples 111 and 112, first eluting isomer, 1-(4-(4-((4-([1,2,4]triazolo[1,5-a]pyridin-7-yloxy)-3-methylphenyl)amino)pyrrolo-[2,1-f][1,2,4]triazin-5-yl)azepan-1-yl)prop-2-en-1-one]",1500 to 5000 nM,< 200 nM,< 200 nM,–,–,–
"Cc1cc(Nc2ncnn3ccc(C4CCN(C(=O)/C=C/CO)CC4)c23)ccc1Oc1ccn2ncnc2c1 [Example 154, (E)-1-(4-(4-((4-([1,2,4]triazolo[1,5-a]pyridin-7-yloxy)-3-methylphenyl)amino)pyrrolo[2,1-f][1,2,4]triazin-5-yl)piperidin-1-yl)-4-hydroxybut-2-en-1-one]",1500 to 5000 nM,< 200 nM,< 200 nM,–,–,–
"Cc1cc(Nc2ncnn3ccc(N4CC(NC(=O)/C=C/CN5CCOCC5)C4)c23)ccc1Oc1ccn2ncnc2c1 [Example 81, (E)-N-(1-(4-((4-([1,2,4]triazolo[1,5-a]pyridin-7-yloxy)-3-methylphenyl)amino)pyrrolo[2,1-f][1,2,4]triazin-5-yl)azetidin-3-yl)-4-morpholinobut-2-enamide]",1500 to 5000 nM,1500 to 5000 nM,200 to 500 nM,–,–,–
"C=CC(=O)N(C)C1CCCN(c2ccn3ncnc(Nc4ccc(Oc5ccn6ncnc6c5)c(C)c4)c23)C1 (stereo not drawn) [Example 69, N-(1-(4-((4-([1,2,4]triazolo[1,5-a]pyridin-7-yloxy)-3-methylphenyl)amino)pyrrolo[2,1-f][1,2,4]triazin-5-yl)piperidin-3-yl)-N-methylacrylamide]",1500 to 5000 nM,200 to 500 nM,< 200 nM,–,–,–
